Reference: ChEMBL document CHEMBL5724914, “Linking interpersonal differences in gut microbiota composition and drug biotransformation activity” (2024)

Tests used:
[1] = (§1) The drug is tested on Z-014 corresponding to rat gut metagenome with ENA study accession number: PRJEB37062 and ENA sample accession number: ERS12561814 for biotransformation under anaerobic condition. The drug concentrations were measured over 9 timepoints collected between 0 and 24 hours of incubation by liquid-chromatography-coupled mass spectrometry (LC–MS); details: 2 µM
[2] = as §1, with “on Z-030” for “on Z-014”, “to mouse” for “to rat”, “number: ERS12561829” for “number: ERS12561814”; details: 2 µM
[3] = human gut metagenome, 24 h, 2 µM
[4] = human gut metagenome, 24 h, 2 µM; remark: listed apart in the source
[5] = as §1, with “Z-019” for “Z-014”, “ERS12561818” for “ERS12561814”; details: 2 µM
[6] = as §1, with “Z-023” for “Z-014”, “to” for “to rat gut”, “ERS12561822” for “ERS12561814”; details: 2 µM
[7] = human gut metagenome, 24 h, 2 µM; remark: listed apart in the source
[8] = as §1, with “on Z-016” for “on Z-014”, “to mouse” for “to rat”, “number: ERS12561815” for “number: ERS12561814”; details: 2 µM
[9] = as §1, with “on Z-028” for “on Z-014”, “to mouse” for “to rat”, “number: ERS12561827” for “number: ERS12561814”; details: 2 µM
[10] = human gut metagenome, 24 h, 2 µM; remark: listed apart in the source
[11] = as §1, with “on Z-020” for “on Z-014”, “to rabbit” for “to rat”, “number: ERS12561819” for “number: ERS12561814”; details: 2 µM
[12] = as §1, with “on WLS-007” for “on Z-014”, “to human” for “to rat”, “number: ERS12561742” for “number: ERS12561814”; details: 2 µM
[13] = human gut metagenome, 24 h, 2 µM; remark: listed apart in the source
[14] = as §1, with “on WLS-098” for “on Z-014”, “to human” for “to rat”, “number: ERS12561754” for “number: ERS12561814”; details: 2 µM
[15] = as §1, with “on Z-011” for “on Z-014”, “to mouse” for “to rat”, “number: ERS12561811” for “number: ERS12561814”; details: 2 µM
[16] = as §1, with “on Z-013” for “on Z-014”, “to rabbit” for “to rat”, “number: ERS12561813” for “number: ERS12561814”; details: 2 µM
[17] = human gut metagenome, 24 h, 2 µM; remark: listed apart in the source
[18] = as §1, with “on WLS-077” for “on Z-014”, “to human” for “to rat”, “number: ERS12561750” for “number: ERS12561814”; details: 2 µM
[19] = human gut metagenome, 24 h, 2 µM; remark: listed apart in the source
[20] = human gut metagenome, 24 h, 2 µM; remark: listed apart in the source
Note: call rule not given here.

Row | Bacterial Biotransformation [1] | Bacterial Biotransformation [2] | Bacterial Biotransformation [3] | Bacterial Biotransformation [4] | Bacterial Biotransformation [5] | Bacterial Biotransformation [6] | Bacterial Biotransformation [7] | Bacterial Biotransformation [8] | Bacterial Biotransformation [9] | Bacterial Biotransformation [10] | Bacterial Biotransformation [11] | Bacterial Biotransformation [12] | Bacterial Biotransformation [13] | Bacterial Biotransformation [14] | Bacterial Biotransformation [15] | Bacterial Biotransformation [16] | Bacterial Biotransformation [17] | Bacterial Biotransformation [18] | Bacterial Biotransformation [19] | Bacterial Biotransformation [20] | Structure (SMILES)
1 | Compound NOT metabolized | Compound NOT metabolized | Compound metabolized | Compound metabolized | Compound NOT metabolized | Compound metabolized | Compound metabolized | Compound metabolized | Compound NOT metabolized | Compound metabolized | Compound metabolized | Compound metabolized | Compound metabolized | Compound metabolized | Compound NOT metabolized | Compound NOT metabolized | Compound metabolized | Compound metabolized | Compound metabolized | Compound metabolized | CCOC(=O)[C@H](CCc1ccccc1)N[C@@H](C)C(=O)N1[C@H](C(=O)O)C[C@@H]2CCC[C@@H]21
2 | Compound metabolized | Compound metabolized | Compound NOT metabolized | Compound NOT metabolized | Compound NOT metabolized | Compound metabolized | Compound NOT metabolized | Compound metabolized | Compound metabolized | Compound metabolized | Compound metabolized |  | Compound metabolized | Compound metabolized | Compound metabolized | Compound metabolized | Compound metabolized | Compound NOT metabolized | Compound NOT metabolized | Compound NOT metabolized | CC(C)OC(=O)C(C)(C)Oc1ccc(C(=O)c2ccc(Cl)cc2)cc1 [FENOFIBRATE]
3 | Compound NOT metabolized | Compound NOT metabolized | Compound metabolized | Compound metabolized | Compound NOT metabolized | Compound metabolized | Compound metabolized | Compound metabolized | Compound metabolized |  | Compound metabolized |  | Compound metabolized | Compound metabolized | Compound NOT metabolized | Compound metabolized | Compound metabolized | Compound metabolized | Compound metabolized | Compound metabolized | COc1c2occc2cc2ccc(=O)oc12 [METHOXSALEN]
4 | Compound NOT metabolized |  | Compound NOT metabolized | Compound NOT metabolized | Compound NOT metabolized | Compound NOT metabolized | Compound NOT metabolized | Compound NOT metabolized | Compound NOT metabolized | Compound metabolized | Compound NOT metabolized | Compound NOT metabolized | Compound metabolized | Compound NOT metabolized | Compound NOT metabolized | Compound NOT metabolized | Compound NOT metabolized | Compound NOT metabolized | Compound NOT metabolized | Compound NOT metabolized | CN1C(=O)CC(C)(c2ccccc2)C1=O (centres undefined) [METHSUXIMIDE]
5 | Compound NOT metabolized |  | Compound NOT metabolized | Compound NOT metabolized | Compound NOT metabolized | Compound metabolized | Compound NOT metabolized | Compound NOT metabolized | Compound metabolized | Compound NOT metabolized | Compound NOT metabolized | Compound NOT metabolized | Compound NOT metabolized | Compound NOT metabolized | Compound NOT metabolized | Compound NOT metabolized | Compound NOT metabolized | Compound NOT metabolized | Compound NOT metabolized | Compound NOT metabolized | COc1ccccc1N1CCN(CC(O)COc2cccc3ccccc23)CC1 (centres undefined) [NAFTOPIDIL]
6 | Compound metabolized | Compound metabolized | Compound metabolized | Compound metabolized | Compound metabolized | Compound metabolized | Compound metabolized | Compound metabolized | Compound metabolized | Compound metabolized |  | Compound metabolized | Compound metabolized | Compound metabolized | Compound metabolized | Compound metabolized | Compound metabolized | Compound metabolized | Compound metabolized | Compound metabolized | Nc1ccc(/N=N/c2ccccc2)c(N)n1 [PHENAZOPYRIDINE]
7 | Compound NOT metabolized | Compound metabolized | Compound NOT metabolized | Compound NOT metabolized | Compound metabolized | Compound NOT metabolized | Compound NOT metabolized | Compound NOT metabolized | Compound metabolized | Compound NOT metabolized | Compound metabolized | Compound NOT metabolized | Compound NOT metabolized | Compound NOT metabolized | Compound metabolized | Compound NOT metabolized | Compound NOT metabolized |  | Compound NOT metabolized | Compound NOT metabolized | Cc1cn([C@H]2C[C@H](N=[N+]=[N-])[C@@H](CO)O2)c(=O)[nH]c1=O [ZIDOVUDINE]

Row | Structure (SMILES) | Bacterial Biotransformation [1] | Bacterial Biotransformation [2] | Bacterial Biotransformation [3] | Bacterial Biotransformation [4] | Bacterial Biotransformation [5] | Bacterial Biotransformation [6] | Bacterial Biotransformation [7] | Bacterial Biotransformation [8] | Bacterial Biotransformation [9] | Bacterial Biotransformation [10] | Bacterial Biotransformation [11] | Bacterial Biotransformation [12] | Bacterial Biotransformation [13] | Bacterial Biotransformation [14] | Bacterial Biotransformation [15] | Bacterial Biotransformation [16] | Bacterial Biotransformation [17] | Bacterial Biotransformation [18] | Bacterial Biotransformation [19] | Bacterial Biotransformation [20]
8 | C[C@@H]1CC[C@H]2[C@@H](C)C(=O)O[C@@H]3O[C@@]4(C)CC[C@@H]1[C@]32OO4 [ARTEMISININ] | Compound metabolized | Compound metabolized | Compound metabolized | Compound NOT metabolized | Compound metabolized | Compound metabolized | Compound metabolized | Compound metabolized | Compound metabolized | Compound metabolized | Compound metabolized | Compound metabolized |  | Compound metabolized |  |  | Compound metabolized | Compound metabolized | Compound metabolized | Compound metabolized
9 | Cc1nc2n(c(=O)c1CCN1CCC(c3noc4cc(F)ccc34)CC1)CCCC2 [RISPERIDONE] | Compound metabolized | Compound NOT metabolized | Compound metabolized | Compound metabolized | Compound NOT metabolized | Compound metabolized | Compound metabolized | Compound metabolized | Compound metabolized | Compound metabolized | Compound metabolized | Compound metabolized | Compound metabolized |  | Compound metabolized | Compound metabolized | Compound NOT metabolized | Compound metabolized | Compound metabolized | Compound metabolized
